According to patent publication US20230059009A1, “INHIBITORS OF LIN28 AND METHODS OF USE THEREOF” (The Regents of the University of California, priority 2019, published 2023):

Columns and labels:
[1] = target: T1, LIN28B/pre-let-7a-2 binding (Homo sapiens, UniProt Q6ZN17); assay: FRET assay, EGFP-tagged LIN28B and BHQ-1 labelled pre-let-7a-2; conditions: doses 1.25 uM-20 uM; compared with LN1632
T1 construct: made in house; host or cells: stably transduced HEK cells; used as diluted protein lysate, not purified
T1 sequence (Q6ZN17 1-250): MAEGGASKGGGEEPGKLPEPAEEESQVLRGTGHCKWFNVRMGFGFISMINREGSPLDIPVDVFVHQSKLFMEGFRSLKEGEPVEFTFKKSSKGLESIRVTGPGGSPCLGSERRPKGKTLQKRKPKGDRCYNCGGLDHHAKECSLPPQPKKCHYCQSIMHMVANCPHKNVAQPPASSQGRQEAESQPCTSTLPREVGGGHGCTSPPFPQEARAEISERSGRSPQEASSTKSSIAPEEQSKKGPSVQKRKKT
Procedure: As described herein, compounds of formula (I) and (II) show Lin28/let-7 inhibitory activity in FRET assays in vitro and in LSCs and LSC-like Kasumi-1 cells. FRET assay was performed as previously described (51).
In order to improve binding and inhibitory capacity of a compound to LIN28b, we predicted the binding mode of LN1632 to LIN28B. […] With this model in hand, we synthesized novel compounds with improved binding capacity to Lin28b (JGJ002-JGJ008, FIG. 8). Compounds were screened using a previously described FRET-assay with an EGFP-tagged LIN28B as donor and a BHQ-1 quencher labelled pre-let-7a-2 (pre-let-7a-2-BHQ1) as acceptor (51). Briefly, recombinant LIN28B-EGFP was harvested from stably transduced HEK cells and diluted with binding buffer (300 mM NaCl, 25 mM HEPES pH 7.2, 10 μM ZnCl2, 1% Odyssey Blocking Buffer, 0.05% Tween 20, 0.5 mM TCEP) in order to adjust ideal FRET-quenching signal intensity. Protein lysate and compounds (JGJ001-JGJ008) were pre-incubated in doses ranging from 1.25 uM-20 uM for 20 min in 100 uL diluted protein lysate. Subsequently pre-let-7a-2-BHQ1 was added to the mixture (at 6.25 nM) and EGFP-LIN28B donor emission was measured using a Tecan Spark Plate Reader ([…], excitation at 488 nm, emission read-out at […], 30 flashes/s). […] Increased endogenous let-7 miRNA levels can target a panoply of LCS and cancer stem cell hallmark genes thus inhibiting tumor growth.
To test the structure-activity relationship, 39 LN1632-related analogs (JGJ001-39) were synthesized and their potency and specificity to inhibit LIN28B-RNA binding activity and upregulate mature let-7 miRNA levels was measured. […] The dual luciferase reporter assay was performed as previously described (89).

H1975 = assay: Cell viability, MTT assay, H1975; type: cell-based; conditions: Homo sapiens, NCI-H1975, H1975 (Lung)
Procedure: (§1) To measure cell viability, cell titer glow (CTG, Promega CellTiter-Glo 2.0 Assay) and MTT assays (SigmaAldrich, Cell Proliferation Kit I) were performed. Briefly, cells were serum starved overnight prior to seeding in 96-well plates. Following 24 h incubation, cells were treated with increasing concentrations of JGJ compounds for 96 hr. At assay read-out, CellTiter-Glo reagent was added and luminescence was measured after 10-minutes incubation at room temperature. For the MTT assay, MTT labeling reagent was added and incubated for 4 h. Subsequently, medium was removed and 50 μL DMSO was added to solubilize the crystals, and absorbance was measured at 570 nm. Cell viability was calculated as (Sample-Background)/(Control-Background).

A549 = assay: Cell viability, MTT assay, A549; type: cell-based; conditions: Homo sapiens, A549 (Lung)
Procedure: as §1

Row | Compound | Inhibition of LIN28B binding to pre-let-7a (FRET signal) [1] | IC50 (H1975) | IC50 (A549)
1 | Cc1cnc2ccc(-c3cccc([N+](=O)[O-])c3)nn12 [JGJ005, 3-Methyl-6-(3-nitrophenyl)imidazo[1,2-b]pyridazine] | greater inhibition of the LIN28B/pre-let-7a2 binding than the original compound LN1632 |  | 
2 | CC(=O)N(C)c1cccc(-c2ccc3ncc(C)n3n2)c1 [JGJ008, N-Methyl-N-(3-(3-methylimidazo[1,2-b]pyridazin-6-yl)phenyl)acetamide] | greater inhibition of the LIN28B/pre-let-7a2 binding than the original compound LN1632 |  | 
3 | Nc1cccc(-c2ccc3ncc(-c4ccccc4)n3c2)c1 [JGJ032, 3-(3-Phenylimidazo[1,2-a]pyridin-6-yl)aniline] | inhibit LIN28's RNA-binding capacity significantly more than compound LN1632 |  | 
4 | C=CC(=O)Nc1cc(Nc2nccc(-c3cn(C)c4ccccc34)n2)c(OC)cc1N(C)CCN(C)C [Osimertinib, reference compound] |  | 21 µM | 11 µM
